The values below come from patent US4521417A, “Geranylgeranylacetamide compounds having a piperazine ring, salts thereof, pharmaceutical compositions containing said compounds, and method of treating ulcers in mammals” (Nihon Iyakuhin Kogyo Co., Ltd., priority 1982, dated 1985).

One test has as its system ulcer. Nature of the test: Pharmacological Test 1: pylorus-ligation ulcer in fasted rats, drug intraduodenal, ulcer area after 8 h. The settings on record: Rattus norvegicus, pylorus ligated, n=15 rats, read-out: Percent inhibition (ulcer area). It is filed as in vivo, STD Wistar-strain male rats. As for the experimental part:
(§1) Pharmacological tests were conducted on the above-mentioned known anti-ulcerogenic agents, the typical known anti-ulcerogenic compound of formula (A)-1 given hereinabove, and the compounds of formula (I) in accordance with this invention in order to examine their anti-ulcerogenic activities.
(§2) In these pharmacological tests, the numbers attached to the compounds of this invention correspond to the numbers of Production Examples given hereinbelow.
STD Wistar-strain male rats (body weight 170 to 200 g) were caused to fast for 72 hours, and then under ether anesthesia, were incised at the abdomen. The pylorus portion was ligated, and each of the test drugs was intraduodenally administered. The abdomen was closed and sewn. Eight hours later, the abdomen was cut open, and the stomach was taken out. The area of a generated ulcer was measured by a stereoscopic microscope, and the percent inhibition was calculated by comparison from a control to which the drug was not administered.

Test [1] has as its system ulcers generated in the stomach body. Nature of the test: Pharmacological Test 2: water-immersion stress ulcer in rats, drug oral, total ulcer length. Conditions: Rattus norvegicus, 1 hour before water immersion stress at 23±1° C., 18 hours, n=10 rats, read-out: Percent inhibition (total length of ulcers). Format: in vivo, STD Wistar-strain male rats. As for the experimental part: as §1, §2
STD Wistar-strain male rats (body weight 170 to 200 g) were caused to fast for 30 hours, and put in a wire cage. They were immersed in a constant temperature water tank kept at 23±1° C. to their emsistermun. Eighteen hours later, the animals were taken out, and incised at the abdomen. The stomach was cut open and examined microscopically. One hour before applying stress to the animals by water immersion, each of the test drugs was orally administered. The total length of ulcers generated in the stomach body was compared with that in a control, and the rate of inhibiting ulcer formation was calculated.

Another test relates to ulcers. Nature of the test: Pharmacological Test 3: indomethacine-induced ulcer in rats, drug oral, total ulcer length. Format: in vivo, STD Wistar male rats. Conditions: Rattus norvegicus, 10 minutes before indomethacine 40 mg/kg s.c., 7 hours, n=10 rats, read-out: Percent inhibition (total length of ulcers). The protocol:
Pharmacological tests were conducted on the above-mentioned known anti-ulcerogenic agents, the typical known anti-ulcerogenic compound of formula (A)-1 given hereinabove, and the compounds of formula (I) in accordance with this invention in order to examine their anti-ulcerogenic activities. In these pharmacological tests, the numbers attached to the compounds of this invention correspond to the numbers of Production Examples given hereinbelow. STD Wistar male rats (body weight 170 to 200 g) were caused to fast for 24 hours, and indomethacine dissolved in a 5% aqueous solution of sodium hydrogen carbonate was subcutaneously administered in a dose of 40 mg/kg. Seven hours later, the animals were autopsied. Each of the test drugs was administered orally to the stomach 10 minutes before administration of indomethacine. The total length of ulcers formed was compared with that in a control, and the percent inhibition was calculated.

Each structure is given as a SMILES string. Structures can show the parent of a compound that is named as a salt.

As for `CC1(C)[C@@H](OC(=O)CCC(=O)O)CC[C@]2(C)[C@H]3C(=O)C=C4[C@@H]5C[C@@](C)(C(=O)O)CC[C@]5(C)CC[C@@]4(C)[C@]3(C)CC[C@@H]12` [Carbenoxolone sodium, glycyrrhetinic acid hydrogen succinate, disodium salt, reference compound], the figures for the inhibition in vivo at 300 mg/kg (in the test with ulcer; in test [1]; with ulcers) were 60.5%, 8.6% and 63.6%, respectively.
For `NC[C@H]1CC[C@H](C(=O)Oc2ccc(CCC(=O)O)cc2)CC1` [Cetraxate hydrochloride, 4-(2-carboxyethyl)-phenyl-trans-4-aminomethylcyclohexanecarboxylate hydrochloride, reference compound], the inhibition in vivo at 300 mg/kg in the test with ulcer was determined as 27.8%; in test [1], 31.6%; in the test with ulcers, 25.3%.
The matching figures for `CC(C)=CCCC(C)=CCCC(C)=CCCC(=O)N1CCN(C)CC1` [Comparative compound of formula (A)-1, reference compound]: 53.3%, 45.6% and 51.2%.
As to `CC(C)=CCC/C(C)=C/CC/C(C)=C/CC/C(C)=C/CCC(=O)N1CCNCC1` [Compound (1), N-geranylgeranylacetyl piperazine], the inhibition in vivo at 300 mg/kg in the test on ulcer is 68.2%; in test [1], 73.8%. For the same compound, in the test on ulcers, the inhibition in vivo at 200 mg/kg is 66%.
Consider `CC(C)=CCC/C(C)=C/CC/C(C)=C/CC/C(C)=C/CCC(=O)N1CCN(C)CC1` [Compound (2), N-methyl-N'-geranylgeranylacetyl piperazine], for which the figures for the inhibition in vivo at 300 mg/kg (with ulcer; in test [1]) were 74.5% and 76%, respectively. In addition, in the test on ulcers, the inhibition in vivo at 200 mg/kg was found to be 75.3%.
The matching figures for `CCN1CCN(C(=O)CC/C=C(\C)CC/C=C(\C)CC/C=C(\C)CCC=C(C)C)CC1` [Compound (3), N-ethyl-N'-geranylgeranylacetyl piperazine]: 70.1%, 68.7% and 62.1%.
The matching figures for `CCCN1CCN(C(=O)CC/C=C(\C)CC/C=C(\C)CC/C=C(\C)CCC=C(C)C)CC1` [Compound (4), N-n-propyl-N'-geranylgeranylacetyl piperazine]: 64.7%, 69% and 56.5%.
As for `CC(C)=CCC/C(C)=C/CC/C(C)=C/CC/C(C)=C/CCC(=O)N1CCN(C(C)C)CC1` [Compound (5), N-isopropyl-N'-geranylgeranylacetyl piperazine], the results for the inhibition in vivo at 300 mg/kg (in the test with ulcer; in test [1]) were 66.5% and 64%, respectively. Besides, the inhibition in vivo at 200 mg/kg in the test with ulcers worked out at 60%.
Regarding `CCCCN1CCN(C(=O)CC/C=C(\C)CC/C=C(\C)CC/C=C(\C)CCC=C(C)C)CC1` [Compound (6), N-butyl-N'-geranylgeranylacetyl piperazine], the inhibition in vivo at 300 mg/kg was 66.5% in the test on ulcer and 60.6% in test [1]. Also, the inhibition in vivo at 200 mg/kg in the test on ulcers is 55.3%.
For `CCCCCN1CCN(C(=O)CC/C=C(\C)CC/C=C(\C)CC/C=C(\C)CCC=C(C)C)CC1` [Compound (7), N-n-amyl-N'-geranylgeranylacetyl piperazine], the figures for the inhibition in vivo at 300 mg/kg (with ulcer; in test [1]) were 67.3% and 64.6%, respectively. Also, the inhibition in vivo at 200 mg/kg in the test on ulcers was determined as 65.3%.
The matching figures for `C=CCN1CCN(C(=O)CC/C=C(\C)CC/C=C(\C)CC/C=C(\C)CCC=C(C)C)CC1` [Compound (8), N-allyl-N'-geranylgeranylacetyl piperazine]: 70.5%, 68.5% and 72.5%.
The like results for `CC(C)=CCC/C(C)=C/CC/C(C)=C/CC/C(C)=C/CCC(=O)N1CCN(CC=C(C)C)CC1` [Compound (9), N-prenyl-N'-geranylgeranylacetyl piperazine] were, in that order, 64%, 59% and 57.2%.
On to `CC(C)=CCC/C(C)=C/CC/C(C)=C/CC/C(C)=C/CCC(=O)N1CCN(CCCCCl)CC1` [Compound (10), N-4-chlorobutyl-N'-geranylgeranylacetyl piperazine], for which the results for the inhibition in vivo at 300 mg/kg (in the test on ulcer; in test [1]) were 65.3% and 67.3%, respectively. Also, in the test on ulcers, the inhibition in vivo at 200 mg/kg worked out at 70.2%.
The like results for `CC(C)=CCC/C(C)=C/CC/C(C)=C/CC/C(C)=C/CCC(=O)N1CCN(CCCBr)CC1` [Compound (11), N-3-bromopropyl-N'-geranylgeranylacetyl piperazine] were, in that order, 66.8%, 65.3% and 65.6%.
On to `CC(C)=CCC/C(C)=C/CC/C(C)=C/CC/C(C)=C/CCC(=O)N1CCN(Cc2ccccc2)CC1` [Compound (12), N-benzyl-N'-geranylgeranylacetyl piperazine], for which the inhibition in vivo at 300 mg/kg in the test with ulcer is 64.9%; in test [1], 61.1%. The inhibition in vivo at 200 mg/kg in the test on ulcers is 62.1%.
The matching figures for `CC(C)=CCCC(C)=CCCC(C)=CCCC(C)=CCCC(=O)N1CCNC(C)C1` (stereo not drawn) [Compound (13), methyl-N-geranylgeranylacetyl piperazine]: 77.1%, 82.8% and 79.2%.
As for `CCC1CN(C(=O)CCC=C(C)CCC=C(C)CCC=C(C)CCC=C(C)C)CCN1` (stereo not drawn) [Compound (14)], the inhibition in vivo at 300 mg/kg is 71.5% with ulcer and 70.2% in test [1]. For the same compound, the inhibition in vivo at 200 mg/kg in the test with ulcers is 73.5%.
The like results for `CC(C)=CCC/C(C)=C/CC/C(C)=C/CC/C(C)=C/CCC(=O)N1C(C)CNCC1C` (stereo not drawn) [Compound (15), 2,6-dimethyl-N-geranylgeranylacetyl piperazine] were, in that order, 80%, 80% and 77.2%.
In the case of `CC(C)=CCCC(C)=CCCC(C)=CCCC(=O)OC/C=C(\C)CCC=C(C)C` [Gefarnate, geranyl farnesylacetate, reference compound], the inhibition in vivo at 300 mg/kg with ulcer was 30%; in test [1], 23.6%; in the test with ulcers, 33.1%.
